Assay results as given in patent US20230105108A1, “COMPOUNDS FOR THE TREATMENT OF BACTERIAL INFECTIONS AND POTENTIATION OF ANTIBIOTICS” (GEORGIA STATE UNIVERSITY RESEARCH FOUNDATION, INC., priority 2019, published 2023).
Structures can show the parent of a compound that is named as a salt. Where two headings read alike, the source gives them in different places.

Columns and labels:
Assay type in all cases: cell-based
[1] = tested on: NDM-1 expressing E. coli strain; experiment: microbe, parasite or virus in culture
[2] = tested on: E. coli (ATCC 25922); experiment: MIC determination, sensitization fold and FIC index on E. coli; conditions: for MIC of AB with MD-124: MD-124 concentration 5 μg/ml; for MIC: Escherichia coli; for Sensitization: compound up to 25 μM
Procedure: Bacteria culture and MICs determination: Gram-negative bacteria were cultured in Mueller Hinton II cation-adjusted broth. Gram-positive bacteria were cultured in LB broth. Mycobacterium smegmatis was cultured in Middlebrook 7H9 Broth. MICs of antibiotics itself were determined by performing two-fold serial dilutions of antibiotics. MICs of antibiotics in the presence of bacterial sensitizers were determined by performing two-fold serial dilutions of antibiotics with or without a constant concentration of bacterial sensitizers. The MICs tests were performed on 96-well plates with a final volume of 200 μl Mueller Hinton II cation-adjusted broth in each well. Each well was inoculated with 5×10^5 CFU/ml bacteria and was incubated for 24 h at 37° C. with continuous shaking of 200 rpm. The bacterial density was then determined by OD600. Bacterial growth %=OD600 of antibiotic treatment group/OD600 of antibiotic non-treatment group. MICs was determined as the concentrations that inhibit more than 90% of bacteria growth.
Sensitization fold determination and FIC index calculations: Sensitization fold=MIC of antibiotic only/MIC of antibiotic with bacterial sensitizer. […] Since the MICs were determined by performing two-fold serial dilutions of antibiotic, so the sensitization fold can is the times of 2.
FIC index between compound a and b was calculated according to the formula below: […]
FIC≤0.5: Synergy; FIC between 0.5 and 1: Additive; FIC between 1 and […]: no interaction; FIC >4: antagonism.
Bacteria strains (as indicated in Table 5B) were cultured with rifampicin at various concentrations in the presence or absence of 10 μM of the indicated compound for 20 h at 37° C. The MIC, sensitization, cytotoxicity, and MIC on mycobacteria were tested according to methods described herein. […] The sensitization activities of compounds on MRSA were tested using rifampicin. The sensitization activities of compounds on E. coli were tested using rifampicin.

[3] = tested on: mcr-1 over-expressing E. coli strains; experiment: microbe, parasite or virus in culture; conditions: Escherichia coli
[4] = Cytotoxicity in H9c2 cells (CCK-8); conditions: rat, H9c2 cells; H9c2 cell line
Procedure: The cytotoxicity in H9c2 (ATCC®CRL-1446™) cells was also determined. The H9c2 cells were maintained in DMEM (Dulbecco's Modified Eagle's Medium) supplemented with 10% fetal bovine serum (MidSci; S01520HI) and 1% penicillin-streptomycin (Sigma-Aldrich; P4333) at 37° C. with 5% CO2. The H9c2 cells were seeded in 96-well plate one day before the experiment. Different concentrations of di-amidine compounds were added into the H9c2 cells. The cells were then incubated with the compounds for 24 hours at 37° C. with 5% CO2. The cell viability was tested by the CCK-8. Specifically, after 24 hour incubation, 10 μL CCK-8 was added to each well. After 3 hours incubation at 37° C., the absorbance at 450 nm was recorded by a plate reader.

[5] = tested on: B. subtilis; experiment: MIC determination and sensitization fold on B. subtilis; conditions: for MIC: Bacillus subtilis, 24 h, compound alone, read-out: MIC; for sensitization fold with 5.5 μg/ml DB2560: B. subtilis towards the antibiotic
[6] = E. coli towards the antibiotic, MD-124 5 μg/ml
[7] = ATCC25922, 24 h, E. coli (wild type), antibiotic alone, read-out: MIC of AB only
[8] = ATCC25922, 24 h, E. coli, compound alone, read-out: MIC
[9] = E. coli, rifampicin, compound at 25 μM
[10] = B. subtilis, erythromycin, compound at 6 μM
[11] = B. subtilis, erythromycin, compound at 12 μM
[12] = E. coli, rifampicin, compound at 10 μM

## CC1(C)S[C@@H]2[C@H](NC(=O)[C@H](N)c3ccccc3)C(=O)N2[C@H]1C(=O)O [Ampicillin]
[1]; NDM-1 expressing E. coli
  MIC of AB with 5 μg/ml MD-124: 300 µg/mL
[1]; NDM-1 expressing E. coli towards the antibiotic
  Sensitization fold with 5 μg/ml MD-124: >1 fold
[1]; NDM-1 expressing E. coli, antibiotic alone
  MFC of AB only: >300 µg/mL
[1]; antibiotic alone (Table 14)
  MIC on NDM-1 over-expression E. coli: >300 µg/mL
[2]; antibiotic alone (Table 14)
  MIC on wild-type E.coli: 6 µg/mL

## CC[C@H]1OC(=O)[C@H](C)[C@@H](O[C@H]2C[C@@](C)(OC)[C@@H](O)[C@H](C)O2)[C@H](C)[C@@H](O[C@@H]2O[C@H](C)C[C@H](N(C)C)[C@H]2O)[C@](C)(O)C[C@@H](C)CN(C)[C@H](C)[C@@H](O)[C@]1(C)O [Azithromycin, reference compound]
[2]; [6]
  Sensitization fold: 16 fold
[2]; E. coli
  MIC of AB with MD-124: 0.4 µg/mL
[2]; [7]
  MIC: 6.2 µg/mL

## N[C@@H]1CCCCN(c2c(F)cc3c(=O)c(C(=O)O)cn(C4CC4)c3c2Cl)C1 [Besifloxacin, reference compound]
[2]; [6]
  Sensitization fold: 8 fold
[2]; E. coli
  MIC of AB with MD-124: 0.0125 µg/mL
[2]; [7]
  MIC: 0.1 µg/mL

## CC[C@H]1OC(=O)[C@H](C)[C@@H](O[C@H]2C[C@@](C)(OC)[C@@H](O)[C@H](C)O2)[C@H](C)[C@@H](O[C@@H]2O[C@H](C)C[C@H](N(C)C)[C@H]2O)[C@](C)(OC)C[C@@H](C)C(=O)[C@H](C)[C@@H](O)[C@]1(C)O [Clarithromycin]
[3]; mcr-1 over-expression E. coli strain (MIC of polymyxin B 30 μg/ml), read-out: MIC of AB only
  MIC: 25 µg/mL
[3]; read-out: MIC of AB with 5 μg/ml MD-124, mcr-1 over-expression E. coli strain (MIC of polymyxin B 30 μg/ml)
  MIC: ≤ 0.2 µg/mL

## Cc1onc(-c2ccccc2Cl)c1C(=O)N[C@@H]1C(=O)N2[C@@H]1SC(C)(C)[C@@H]2C(=O)O [Cloxacillin, reference compound]
[2]; [6]
  Sensitization fold: >4 fold
[2]; E. coli
  MIC of AB with MD-124: 75 µg/mL
[2]; [7]
  MIC: > 300 µg/mL

## N=C(N)c1ccc(OCOc2ccc(C(=N)N)cc2)cc1 [DB1824]
[4]
  CC50 at 24 h: > 100 µM
[2]; E. coli, rifampicin
  Sensitization: No effect up to 25 μM
[2]; [8]
  MIC: > 100 µM
[5]; B. subtilis, erythromycin, compound at 12.5 μM
  Sensitization fold: 2-fold at 12.5 μM,
[5]; B. subtilis
  MIC: 12.5 µM

## N=C(N)c1ccc(OCCCCCCOc2ccc(C(=N)N)cc2)cc1 [DB2362]
[4]
  CC50 at 24 h: 25 µM
[2]; [9]
  Sensitization fold: 8-fold at 25 μM;
[2]; [8]
  MIC: 50 µM
[5]; [10]
  Sensitization fold: 4-fold at 6 μM

## N=C(N)c1ccc(OCc2cccc(COc3ccc(C(=N)N)cc3)n2)cc1 [DB2447]
[4]
  CC50 at 24 h: > 100 µM
[2]; E. coli, rifampicin
  Sensitization: No effect up to 25 μM
[2]; [8]
  MIC: 100 µM
[5]; B. subtilis, erythromycin, compound at 2 μM
  Sensitization fold: No effect at 2 μM.

## N=C(N)c1ccc(OCc2cccc(COc3ccc(C(N)=O)cc3)n2)cc1 [DB2449]
[4]
  CC50 at 24 h: > 100 µM
[2]; E. coli, rifampicin
  Sensitization: No effect up to 25 μM
[2]; [8]
  MIC: > 100 µM
[5]; B. subtilis, erythromycin, compound up to 25 μM
  Sensitization: No effect up to 25 μM
[5]; B. subtilis
  MIC: > 50 µM

## Fc1c(COc2ccc(C3=NCCN3)cc2)cccc1COc1ccc(C2=NCCN2)cc1 [DB2510, 1,3-Bis {(4-(2-imidazolino))-phenoxymethyl}-2-fluorobenzene dihydrochloride]
[4]
  CC50 at 24 h: 25 µM
[2]; E. coli, rifampicin
  Sensitization: No effect up to 25 μM
[2]; [8]
  MIC: > 50 µM

## c1cc(COc2ccc(C3=NCCN3)cc2)cc(COc2ccc(C3=NCCN3)cc2)c1 [DB2538, 1,3-Bis {(4-(2-imidazolino))-phenoxymethyl}-benzene dihydrochloride]
[4]
  CC50 at 24 h: < 12.5 µM
[2]; E. coli, rifampicin
  Sensitization: No effect up to 25 μM
[2]; [8]
  MIC: > 50 µM
[5]; [11]
  Sensitization fold: 4-fold at 12 μM
[5]; B. subtilis
  MIC: > 50 µM

## Fc1cc(C2=NCCN2)ccc1OCc1cccc(COc2ccc(C3=NCCN3)cc2F)c1F [DB2554, 1,3-Bis {4-(2-imidazolino)-2-fluoro)-phenoxy methyl}-2-fluorobenzene dihydrochloride]
[4]
  CC50 at 24 h: 50 µM
[2]; E. coli, rifampicin
  Sensitization: No effect up to 25 μM
[2]; [8]
  MIC: > 50 µM

## COc1cc(C2=NCCN2)ccc1OCc1cccc(COc2ccc(C3=NCCN3)cc2OC)c1F [DB2555, dihydrochloride]
[4]
  CC50 at 24 h: 50 µM
[2]; E. coli, rifampicin
  Sensitization: No effect up to 25 μM
[2]; [8]
  MIC: > 50 µM

## Cc1cc(-c2nc3cc(C(=N)N)ccc3n2C)sc1-c1ccc(OCCCCOc2ccc(C(=N)N)cc2)cc1 [DB2583]
[4]
  CC50 at 24 h: 12.5 µM
[2]; E. coli, rifampicin
  Sensitization: No effect up to 25 μM
[2]; [8]
  MIC: 100 µM
[5]; [11]
  Sensitization fold: 16-fold at 12 μM
[5]; B. subtilis
  MIC: 25 µM

## CC[C@H]1OC(=O)[C@H](C)[C@@H](O[C@H]2C[C@@](C)(OC)[C@@H](O)[C@H](C)O2)[C@H](C)[C@@H](O[C@@H]2O[C@H](C)C[C@H](N(C)C)[C@H]2O)[C@](C)(O)C[C@@H](C)C(=O)[C@H](C)[C@@H](O)[C@]1(C)O [Erythromycin, reference compound]
[2]; E. coli
  MIC of AB with MD-124: 0.4 µg/mL
[2]; ATCC25922, read-out: MIC of erythromycin in the presence of 10 μg/ml MD-100, wild-type E. coli
  MIC: 1.6 µg/mL
[5]; B. subtilis
  MIC of erythromycin in the absence of DB2560: 0.05 ng/mL
  MIC of erythromycin in the presence of DB2560: 0.0015 ng/mL

## C[C@H]1COc2c(N3CCN(C)CC3)c(F)cc3c(=O)c(C(=O)O)cn1c23 [Levofloxacin, reference compound]
[2]; [6]
  Sensitization fold: 8 fold
[2]; E. coli
  MIC of AB with MD-124: 0.0062 µg/mL
[2]; [7]
  MIC: 0.05 µg/mL

## Cc1ccc(COc2ccc(C(=N)N)cc2)cc1COc1ccc(C(=N)N)cc1 [MD-119, 1,3-Bis {(4-amidino)-phenoxymethyl}-6-methylbenzene dihydrochloride]
[2]; E. coli, rifampicin, compound at 12.5 μM
  Sensitization fold: 4-fold at 12.5 μM.
[2]; [9]
  Sensitization fold: 32-fold at 25 μM,
[2]; ATCC25922, 24 h
  MIC: 100 µM
[5]; [10]
  Sensitization fold: 16-fold at 6 μM
[5]; [11]
  Sensitization fold: 32-fold at 12 μM,
[5]; B. subtilis
  MIC: 25 µM

## N=C(N)c1ccc(COc2cc(OCc3ccc(C(=N)N)cc3F)cc(C(F)(F)F)c2)c(F)c1 [MD-127, dihydrochloride]
[2]; [12]
  Sensitization fold: 516-fold at 10 μM
[2]; [8]
  MIC: 100 µM

## N=C(N)c1ccc(CCc2cc(CCc3ccc(C(=N)N)cc3)cc(C(F)(F)F)c2)cc1 [MD-128, 1,3-Bis {(4-amidino)-phenethyl}-5-trifluoromethylbenzene dihydrochloride]
[2]; [12]
  Sensitization fold: 516-fold at 10 μM
[2]; ATCC25922, 24 h
  MIC: 100 µM

## COc1c(N2C[C@@H]3CCCN[C@@H]3C2)c(F)cc2c(=O)c(C(=O)O)cn(C3CC3)c12 [Moxifloxacin, reference compound]
[2]; [6]
  Sensitization fold: 8 fold
[2]; E. coli
  MIC of AB with MD-124: 0.0062 µg/mL
[2]; [7]
  MIC: 0.05 µg/mL

## CO[C@H]1/C=C/O[C@@]2(C)Oc3c(C)c(O)c4c(O)c(c(/C=N/N5CCN(C6CCCC6)CC5)c(O)c4c3C2=O)NC(=O)/C(C)=C\C=C\[C@H](C)[C@H](O)[C@@H](C)[C@@H](O)[C@@H](C)[C@H](OC(C)=O)[C@@H]1C [Rifapentine, reference compound]
[2]; [6]
  Sensitization fold: 32 fold
[2]; E. coli
  MIC of AB with MD-124: 0.8 µg/mL
[2]; [7]
  MIC: 25 µg/mL

## CO[C@H]1/C=C/O[C@@]2(C)Oc3c(C)c(O)c4c(O)c(c5c(nc6cc(C)ccn65)c4c3C2=O)NC(=O)/C(C)=C\C=C\[C@H](C)[C@H](O)[C@@H](C)[C@@H](O)[C@@H](C)[C@H](OC(C)=O)[C@@H]1C [Rifaximin, reference compound]
[2]; [6]
  Sensitization fold: 64 fold
[2]; E. coli
  MIC of AB with MD-124: 0.2 µg/mL
[2]; [7]
  MIC: 12.5 µg/mL

## C[C@@H](O)[C@H]1C(=O)N2C(C(=O)O)=C(S[C@@H]3CN[C@H](C(=O)Nc4cccc(C(=O)O)c4)C3)[C@H](C)[C@H]12 [entrapenem, reference compound]
[5]
  sensitization fold with 5.5 μg/ml DB2560: 4 fold

## COc1cccc(OC)c1C(=O)N[C@@H]1C(=O)N2[C@@H]1SC(C)(C)[C@@H]2C(=O)O [methicillin, reference compound]
[5]
  sensitization fold with 5.5 μg/ml DB2560: 4 fold

## polymyxin B nonapeptide [PMBN, reference compound]
[2]; E. coli, rifampicin, 20 μg/ml bacterial sensitizer
  Sensitization fold: 16 fold
